According to patent publication US20250339399A1, “SUPRAMOLECULAR SELF-ASSEMBLY SYSTEM” (Beijing Creatron Institute of Pharmaceutical Research Co., …, priority 2022, published 2025):
Each block holds one molecule with its values, some of them ahead of it.

Tests used:
[1] = Guest molecule concentration after incubation in initial medium without polymer (Comparative Example 1); assay type: physicochemical; details: 37° C.
Outline: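 Dissolved guest content measured by HPLC of centrifuged supernatants (37° C., 13000 rpm, 5 min) sampled at 0.5 h, 3 h and 6 h. Incubation was polymer-free at 37° C.±0.5° C. in buffers of pH 2.0-7.4; nominal loading was set by maximum clinical dose.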

[2] = Binary (carrier), ternary and quaternary supramolecular self-assembly systems of polymer, carrier building block and target: guest concentration over incubation time (Examples 1-56); assay type: physicochemical
Outline: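 Targets were incubated at 37 °C in pH 2.0–7.4 buffers with 0.5% polymer alone or with carrier building blocks, after 0.5 h sonication for ternary systems, and shaken at 200 rpm. Samples at 0.5–6 h were centrifuged and diluted ≥10-fold, and dissolved target was quantified by HPLC; surfactant was added if needed.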

[3] = Binary supramolecular self-assembly systems of polymer and target: guest concentration over incubation time (Comparative Example 2); assay type: physicochemical; details: for Concentration of guest molecule in solution / Times that of the initial medium: 6 h
Experimental: Experiments were conducted according to the steps in Comparative Example 1, and quantitative analysis was carried out using the analytical method for each target to investigate the regulation ability […] stacking.

[4] = cited from earlier work
[5] = quaternary: 0.25% 205 (102H+104) + 0.25% 313, 6 h
[6] = quaternary: 0.25% 205 (102H+104) + 0.25% 318, 6 h
[7] = quaternary: 204 (103E5+102H) + 301, % not stated, 6 h
[8] = ternary: 0.25% 102H + 0.1% 313, 6 h
[9] = ternary: 0.25% 102H + 0.25% 313, 6 h
[10] = ternary: 0.25% 102H + 1.0% 313, 6 h
[11] = ternary: 102H (0.25% where stated) + 301, carrier % not stated, 6 h
[12] = binary system with 0.5% polymer 101, incubation 0.5 h
[13] = binary system with 0.5% polymer 101, incubation 3 h
[14] = binary system with 0.5% polymer 101, incubation 6 h
[15] = binary system with 0.5% polymer 102, incubation 0.5 h
[16] = binary system with 0.5% polymer 102, incubation 3 h
[17] = binary system with 0.5% polymer 102, incubation 6 h
[18] = binary system with 0.5% polymer 103, incubation 0.5 h
[19] = binary system with 0.5% polymer 103, incubation 3 h
[20] = binary system with 0.5% polymer 103, incubation 6 h
[21] = binary system with 0.5% polymer 104, incubation 0.5 h
[22] = binary system with 0.5% polymer 104, incubation 3 h
[23] = binary system with 0.5% polymer 104, incubation 6 h
[24] = binary system with 0.5% polymer 106, incubation 0.5 h
[25] = binary system with 0.5% polymer 106, incubation 3 h
[26] = binary system with 0.5% polymer 106, incubation 6 h
[27] = binary system with 0.5% polymer 107, incubation 0.5 h
[28] = binary system with 0.5% polymer 107, incubation 3 h
[29] = binary system with 0.5% polymer 107, incubation 6 h
[30] = quaternary: 202 (102H+107) + 0.5% 301, 6 h
[31] = quaternary: 202 (102H+107) + 0.5% 302, 6 h
[32] = quaternary: 204 (102H+103E5) + 0.5% 301, 6 h
[33] = quaternary: 204 (102H+103E5) + 0.5% 302, 6 h
[34] = ternary: 0.25% 102H + 0.5% 301, 6 h
[35] = ternary: 0.25% 102H + 0.5% 302, 6 h

Concentration of guest molecule measured after different incubated time ([1]; 0.5 h, pH 6.8 phosphate buffer): 140.4 µg/mL
Concentration of guest molecule measured after different incubated time ([1]; 3 h, pH 6.8 phosphate buffer): 34.8 µg/mL
Concentration of guest molecule measured after different incubated time ([1]; 6 h, pH 6.8 phosphate buffer): 31.6 µg/mL
Increase of the concentration of the guest molecule ([2]; 0.25% 102H, 1.0% 313 compared to the 0.25% 313 system, 6 h): 16.4%
Concentration of guest molecule in solution ([2]; binary: 0.25% 301, 6 h): 77.0 µg/mL
Concentration of guest molecule in solution ([2]; binary: 0.25% 302, 6 h): 34.2 µg/mL
Concentration of guest molecule in solution ([2]; binary: 0.25% 310, 6 h): 279.8 µg/mL
Concentration of guest molecule in solution ([2]; binary: 0.25% 313, 6 h): 70.0 µg/mL
Concentration of guest molecule in solution ([2]; binary: 0.25% 318, 6 h): 60.5 µg/mL
Concentration of guest molecule in solution [2, 5]: 250.7 µg/mL
Times that of the initial medium [2, 5]: 7.9 times
Concentration of guest molecule in solution [2, 6]: 257.8 µg/mL
Times that of the initial medium [2, 6]: 8.2 times
Concentration of guest molecule in solution [2, 7]: 250.4 µg/mL
Times that of the initial medium [2, 7]: 7.9 times
Concentration of guest molecule in solution [2, 8]: 191.5 µg/mL
Times that of the initial medium [2, 8]: 6.1 times
Concentration of guest molecule in solution ([2]; ternary: 0.25% 102H + 0.25% 302, 6 h): 195.5 µg/mL
Concentration of guest molecule in solution ([2]; ternary: 0.25% 102H + 0.25% 310, 6 h): 44.8 µg/mL
Concentration of guest molecule in solution [2, 9]: 361.6 µg/mL
Times that of the initial medium [2, 9]: 11.4 times
Concentration of guest molecule in solution ([2]; ternary: 0.25% 102H + 0.25% 318, 6 h): 181.8 µg/mL
Concentration of guest molecule in solution [2, 10]: 420.8 µg/mL
Times that of the initial medium [2, 10]: 13.3 times
Concentration of guest molecule in solution ([2]; ternary: 0.25% 103E5 + 0.25% 302, 6 h): 102.3 µg/mL
Concentration of guest molecule in solution ([2]; ternary: 0.25% 104 + 0.25% 302, 6 h): 138.3 µg/mL
Concentration of guest molecule in solution [2, 11]: 126.9 µg/mL
Times that of the initial medium [2, 11]: 4.0 times
Concentration of the target in the solution measured after different incubation time [3, 12]: 163.1 µg/mL
Concentration of the target in the solution measured after different incubation time [3, 13]: 89.0 µg/mL
Concentration of the target in the solution measured after different incubation time [3, 14]: 85.5 µg/mL
Concentration of the target in the solution measured after different incubation time [3, 15]: 205.7 µg/mL
Concentration of the target in the solution measured after different incubation time [3, 16]: 167.0 µg/mL
Concentration of the target in the solution measured after different incubation time [3, 17]: 154.0 µg/mL
Concentration of the target in the solution measured after different incubation time [3, 18]: 259.9 µg/mL
Concentration of the target in the solution measured after different incubation time [3, 19]: 126.5 µg/mL
Concentration of the target in the solution measured after different incubation time [3, 20]: 109.6 µg/mL
Concentration of the target in the solution measured after different incubation time [3, 21]: 105.4 µg/mL
Concentration of the target in the solution measured after different incubation time [3, 22]: 156.4 µg/mL
Concentration of the target in the solution measured after different incubation time [3, 23]: 144.8 µg/mL
Concentration of the target in the solution measured after different incubation time [3, 24]: 131.3 µg/mL
Concentration of the target in the solution measured after different incubation time [3, 25]: 60.3 µg/mL
Concentration of the target in the solution measured after different incubation time [3, 26]: 58.2 µg/mL
Concentration of the target in the solution measured after different incubation time [3, 27]: 103.5 µg/mL
Concentration of the target in the solution measured after different incubation time [3, 28]: 32.0 µg/mL
Concentration of the target in the solution measured after different incubation time [3, 29]: 27.0 µg/mL
Concentration of guest molecule in solution ([3]; binary: 0.5% 102H): 154.0 µg/mL
Times that of the initial medium ([3]; binary: 0.5% 102H): 4.9 times
Concentration of guest molecule in solution ([3]; binary: 0.5% 103E5): 105.4 µg/mL
Times that of the initial medium ([3]; binary: 0.5% 103E5): 3.3 times
Concentration of guest molecule in solution ([3]; binary: 0.5% 104): 144.8 µg/mL
Times that of the initial medium ([3]; binary: 0.5% 104): 4.6 times
SMILES: CC(=O)c1c(C)c2cnc(Nc3ccc(N4CCNCC4)cn3)nc2n(C2CCCC2)c1=O [Palbociclib]
LogD7.4 or Log P [4]: 1.31

Concentration of guest molecule measured after different incubated time ([1]; 0.5 h, 0.1% SDS in pH 6.8 phosphate buffer): 98.5 µg/mL
Concentration of guest molecule measured after different incubated time ([1]; 3 h, 0.1% SDS in pH 6.8 phosphate buffer): 4.1 µg/mL
Concentration of guest molecule measured after different incubated time ([1]; 6 h, 0.1% SDS in pH 6.8 phosphate buffer): 4.4 µg/mL
Concentration of guest molecule in solution [2, 30]: 512.2 µg/mL
Times that of the initial medium [2, 30]: 91.3 times
Concentration of guest molecule in solution [2, 31]: 572.8 µg/mL
Times that of the initial medium [2, 31]: 102.1 times
Concentration of guest molecule in solution [2, 32]: 543.3 µg/mL
Times that of the initial medium [2, 32]: 96.8 times
Concentration of guest molecule in solution [2, 33]: 431.5 µg/mL
Times that of the initial medium [2, 33]: 76.9 times
Concentration of guest molecule in solution [2, 34]: 609.8 µg/mL
Times that of the initial medium [2, 34]: 108.7 times
Concentration of guest molecule in solution [2, 35]: 644.6 µg/mL
Times that of the initial medium [2, 35]: 115 times
Concentration of guest molecule in solution ([2]; ternary: 102H + 310, carrier % not stated, 6 h): 65.6 µg/mL
Concentration of guest molecule in solution ([2]; ternary: 102H + 310, 2 h): 903.1 µg/mL
Concentration of guest molecule in solution ([2]; ternary: 102H + 311, 4 h): 804.8 µg/mL
Concentration of guest molecule in solution ([2]; ternary: 102H + 311, 6 h): 246.9 µg/mL
Concentration of guest molecule in solution ([2]; ternary: 102H + 313, carrier % not given, 6 h): 634.8 µg/mL
Concentration of guest molecule in solution ([2]; ternary: 102H + 313, 4 h): 884.2 µg/mL
Concentration of guest molecule in solution ([2]; ternary: 102H + 318, carrier % not stated, 6 h): 115.4 µg/mL
Concentration of guest molecule in solution ([2]; ternary: 102H + 318, 2 h): 778.1 µg/mL
Concentration of the target in the solution measured after different incubation time [3, 12]: 741.5 µg/mL
Concentration of the target in the solution measured after different incubation time [3, 13]: 751.6 µg/mL
Concentration of the target in the solution measured after different incubation time [3, 14]: 759.3 µg/mL
Concentration of the target in the solution measured after different incubation time [3, 15]: 770.6 µg/mL
Concentration of the target in the solution measured after different incubation time [3, 16]: 151.8 µg/mL
Concentration of the target in the solution measured after different incubation time [3, 17]: 102.9 µg/mL
Concentration of the target in the solution measured after different incubation time [3, 18]: 602.5 µg/mL
Concentration of the target in the solution measured after different incubation time [3, 19]: 61.5 µg/mL
Concentration of the target in the solution measured after different incubation time [3, 20]: 38.5 µg/mL
Concentration of the target in the solution measured after different incubation time [3, 21]: 108.9 µg/mL
Concentration of the target in the solution measured after different incubation time [3, 22]: 4.3 µg/mL
Concentration of the target in the solution measured after different incubation time [3, 23]: 3.7 µg/mL
Concentration of the target in the solution measured after different incubation time [3, 24]: 765.3 µg/mL
Concentration of the target in the solution measured after different incubation time [3, 25]: 571.3 µg/mL
Concentration of the target in the solution measured after different incubation time [3, 26]: 310.3 µg/mL
Concentration of the target in the solution measured after different incubation time [3, 27]: 784.3 µg/mL
Concentration of the target in the solution measured after different incubation time [3, 28]: 432.2 µg/mL
Concentration of the target in the solution measured after different incubation time [3, 29]: 244.4 µg/mL
Concentration of guest molecule in solution ([3]; binary: 0.5% 102H): 102.9 µg/mL
Times that of the initial medium ([3]; binary: 0.5% 102H): 18.4 times
Average concentration of guest molecule in solution ([3]; binary: 0.5% 102H, within 4 to 6 hours): 110 µg/mL
Concentration of guest molecule in solution ([3]; binary: 0.5% 103E5): 33.4 µg/mL
Times that of the initial medium ([3]; binary: 0.5% 103E5): 6.0 times
Concentration of guest molecule in solution ([3]; binary: 0.5% 107): 171.6 µg/mL
Times that of the initial medium ([3]; binary: 0.5% 107): 30.6 times
SMILES: CNC(=O)c1cc(Oc2ccc(NC(=O)Nc3ccc(Cl)c(C(F)(F)F)c3)cc2)ccn1 [Sorafenib]
LogD7.4 or Log P [4]: 4.34
